≈ marks a conversion by molar mass, not a printed value. Like-named read-outs stand apart in the source and are kept apart here.
Tests used:
[1] = system: Pseudomonas aeruginosa UI-18: Wild-type (PA-7); experiment: MIC determination (CLSI), PA-7; format: cell-based; conditions: for MIC: Pseudomonas aeruginosa
Procedure, shortened: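 Wild-type P. aeruginosa UI-18 tested for minimum inhibitory concentration. Broth/agar dilution following CLSI standards (M7-A7, M100-S18).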

[2] = system: Acinetobacter baumanii/haemolyticus: Multidrug-resistant clinical isolate (AB-3167); experiment: MIC determination (CLSI), AB-3167; format: cell-based; conditions: for MIC: Acinetobacter baumannii
Procedure, shortened: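 Multidrug-resistant clinical isolate AB-3167 (A. baumannii/haemolyticus) tested for minimum inhibitory concentration following CLSI dilution susceptibility standards M7-A7 and M100-S18.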

[3] = molecular target: Pseudomonas aeruginosa LpxC enzyme (Pseudomonas aeruginosa (strain ATCC 15692 / DSM 22644 / CIP 104116 / JCM 14847 / LMG 12228 / 1C / PRS 101 / PAO1), UniProt P47205); experiment: IC50 Assay, LpxC Enzyme from P. aeruginosa (PA LpxC Enzyme IC50); format: biochemical
Method: In order to assess the compounds biological activity, selected in-vitro assays were conducted on selected compounds. One of the assays measured the compounds ability to disrupt the synthesis of lipopolysaccharide, LPS, which is a component of the outer membrane of Gram-negative bacteria. Disruption of this synthesis is lethal to the bacteria. The assay determined the compound's ability to inhibit LpxC, which is the first enzyme in the biosynthetic pathway for LPS (measured as IC50). Additionally, MICs (minimal inhibitory concentrations) were determined for several bacteria. The specific protocols are described below:
A) IC50 Assay, LpxC Enzyme from P. aeruginosa (Labled as PA LpxC Enzyme IC50
At the end of 1 hour, 5 ul of 1N HCl was added to stop the enzyme reaction; the plates were centrifuged, and then processed with the BioTrove Rapidfire HTMS Mass Spectrometry System. A no-enzyme control was used in calculating the IC50 values from the percent conversion values.

[4] = system: Klebsiella pneumoniae: Ciprofloxacin-resistant isolate, ESBL, clinical isolate (KP-3700); experiment: MIC determination (CLSI), KP-3700; format: cell-based
Procedure, shortened: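 Strain KP-3700, a clinical isolate producing extended-spectrum β-lactamases and resistant to ciprofloxacin, was tested. Minimum inhibitory concentrations determined via CLSI dilution methodology (M7-A7; M100-S18).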

[5] = system: Escherichia coli EC-1: VOGEL, mouse virulent; experiment: MIC determination (CLSI), EC-1; format: cell-based; conditions: for MIC: Escherichia coli
Procedure, shortened: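 E. coli Vogel, a mouse-virulent strain (EC-1), was tested. MICs were set by dilution susceptibility testing per CLSI standards M7-A7/M100-S18.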

[6] = Table 3, read-out: PA LpxC enzyeme IC^50
[7] = Pseudomonas aeruginosa UI-18 wild-type PA-7
[8] = Acinetobacter baumanii/haemolyticus multidrug-resistant clinical isolate AB-3167
[9] = P. aeruginosa LpxC enzyme, read-out: PA LpxC enzyeme IC50
[10] = Escherichia coli EC-1 VOGEL, mouse virulent
[11] = Table 1, MIC, read-out: PA-7 (MIC)
[12] = Table 1, MIC, read-out: AB-3167 (MIC)
[13] = Pseudomonas aeruginosa UI-18 (PA-7)
[14] = Acinetobacter baumanii/haemolyticus AB-3167

| SMILES | MIC ([1]; Table 3, read-out: PA-7 MIC) [mg/L] | MIC ([2]; Table 3, read-out: AB-3167 MIC) [mg/L] | IC50 [3, 6] [nM] | KP-3700 MIC [4] | MIC ([5]; read-out: EC-1 MIC) [mg/L] | PA-7 MIC [1, 7] [mg/L] | AB-3167 MIC [2, 8] | IC50 [3, 9] [nM] | EC-1 MIC [5, 10] | further results |
| --- | --- | --- | --- | --- | --- | --- | --- | --- | --- | --- |
| C#CCOc1ccc(CCC(C)(C(=O)NO)S(C)(=O)=O)cc1 (stereo not drawn) [Example 265, N-hydroxy-2-methyl-2-(methylsulfonyl)-4-[4-(prop-2-yn-1-yloxy)phenyl)butanamide] | 16 (≈ 49.2 µM) | ≥ 64 | 105 | ≧64 mg/L | ≥ 64 | – | – | – | – | – |
| CN1CCN(c2ccc(-c3ccc(CCC(C)(C(=O)NO)S(C)(=O)=O)cc3)cc2)CC1 (stereo not drawn) [Example 166] | – | – | – | 16 mg/L | – | 2 | ≧64 mg/L | 1.17 | 4 mg/L | – |
| CC(CCc1ccc(-c2ccc(F)cc2)cc1O)(C(=O)NO)S(C)(=O)=O (racemic) [Example 19, (+/−)-4-(4′-Fluoro-3-hydroxybiphenyl-4-yl)-N-hydroxy-2-methyl-2-(methylsulfonyl)butanamide] | – | – | – | 32 mg/L | – | – | – | – | – | MIC [1, 11]: 16 mg/L (≈ 41.9 µM); MIC [2, 12]: ≥ 64 mg/L; IC50 ([3]; PA LpxC enzyeme IC50, Table 1): 3.43 nM; MIC ([5]; read-out: EC-1: (MIC)): 8 mg/L (≈ 21 µM) |
| CC1(O)CCN(C(=O)COc2ccc(-c3ccc(CC[C@](C)(C(=O)NO)S(C)(=O)=O)cc3)cc2)CC1 [Example 222] | – | – | – | ≧64 mg/L | – | – | – | 0.841 | – | PA-7 MIC [1, 13]: 32 mg/L; AB-3167 MIC [2, 14]: ≧64 mg/L; EC-1 MIC ([5]; Escherichia coli EC-1): 16 mg/L |
| CC(CCc1ccc(-c2ccc3nonc3c2)cc1)(C(=O)NO)S(C)(=O)=O (stereo not drawn) [Example 174] | – | – | – | 8 mg/L | – | 2 | ≧64 mg/L | 0.54 | 4 mg/L | – |
| Cc1cccc(COc2ccc(CCC(C)(C(=O)NO)S(C)(=O)=O)cc2)c1 (stereo not drawn) [Example 310, N-hydroxy-2-methyl-4-{4-[(3-methylbenzyl)oxy]phenyl}-2-(methylsulfonyl)butanamide] | 4 (≈ 10.2 µM) | 16 (≈ 40.9 µM) | 0.883 | 8 mg/L | 2 (≈ 5.11 µM) | – | – | – | – | – |
| C[C@@](CCc1ccc(-c2ccc(CC(=O)N3CCC(O)CC3)cc2)cc1)(C(=O)NO)S(C)(=O)=O [Example 191] | – | – | – | ≧64 mg/L | – | 16 | ≧64 mg/L | 2.63 | ≧64 mg/L | – |
| CC(CCc1ccc(-c2ccc(Cl)cc2)cc1)(C(=O)NO)S(C)(=O)=O (stereo not drawn) [Example 44] | – | – | – | 1 mg/L | – | 0.5 | 16 mg/L | 0.0669 | 0.5 mg/L | – |
| CC(CCc1ccc(-c2ccc([N+](=O)[O-])cc2)cc1)(C(=O)NO)S(C)(=O)=O (racemic) [Example 5, (+/−)-N-hydroxy-2-methyl-2-(methylsulfonyl)-4-(4′-nitrobiphenyl-4-yl)butanamide] | – | – | – | 1 mg/L | – | – | – | – | – | MIC [1, 11]: 0.5 mg/L (≈ 1.27 µM); MIC [2, 12]: 32 mg/L (≈ 81.5 µM); IC50 ([3]; Table 1, read-out: PA LpxC enzyeme IC50): 0.12 nM; MIC ([5]; read-out: EC-1: (MIC)): 0.5 mg/L (≈ 1.27 µM) |
| CC(CCc1ccc(OCc2cccc3cccnc23)cc1)(C(=O)NO)S(C)(=O)=O (stereo not drawn) [Example 296, N-hydroxy-2-methyl-2-(methylsulfonyl)-4-[4-(quinolin-8-ylmethoxy)phenyl]butanamide] | ≥ 64 | 32 (≈ 74.7 µM) | 15.8 | 16 mg/L | 8 (≈ 18.7 µM) | – | – | – | – | – |
| CC(CCc1ccc(-c2ccccc2Cl)cc1)(C(=O)NO)S(C)(=O)=O (stereo not drawn) [Example 81] | – | – | – | 8 mg/L | – | 1 | 32 mg/L | 0.448 | 2 mg/L | – |
| CC(CCc1ccc(-c2ccc(N3CCOCC3)cc2)cc1)(C(=O)NO)S(C)(=O)=O (stereo not drawn) [Example 165] | – | – | – | 8 mg/L | – | 8 | ≧64 mg/L | 0.295 | 0.5 mg/L | – |
| CC(C)Cc1ccc(-c2ccc(CCC(C)(C(=O)NO)S(C)(=O)=O)cc2)cc1 (stereo not drawn) [Example 63] | – | – | – | 4 mg/L | – | 16 | 8 mg/L | 0.356 | 2 mg/L | – |
| CC(CCc1ccc(C2=CCCCC2)cc1)(C(=O)NO)S(C)(=O)=O (stereo not drawn) [Example 224] | – | – | – | 16 mg/L | – | – | – | 0.441 | – | PA-7 MIC [1, 13]: 2 mg/L; AB-3167 MIC [2, 14]: 4 mg/L; EC-1 MIC ([5]; Escherichia coli EC-1): 4 mg/L |
| CC(CCc1ccc(OCc2ccc(S(C)(=O)=O)cc2)cc1)(C(=O)NO)S(C)(=O)=O (stereo not drawn) [Example 309, N-hydroxy-2-methyl-2-(methylsulfonyl)-4-(4-{[4-(methylsulfonyl)benzyl]oxy}phenyl)butanamide] | 8 (≈ 17.6 µM) | ≥ 64 | 1.21 | 16 mg/L | 8 (≈ 17.6 µM) | – | – | – | – | – |
| CC(CCc1ccc(OCc2ccc(C(F)(F)F)cc2)cc1)(C(=O)NO)S(C)(=O)=O (stereo not drawn) [Example 301, N-hydroxy-2-methyl-2-(methylsulfonyl)-4-(4-{[4-(trifluoromethyl)benzyl]oxy}phenyl)butanamide] | 8 (≈ 18 µM) | 4 (≈ 8.98 µM) | 2.08 | 8 mg/L | 4 (≈ 8.98 µM) | – | – | – | – | – |
| CC(CCc1ccc(OCCCOc2ccccc2)cc1)(C(=O)NO)S(C)(=O)=O (stereo not drawn) [Example 297, N-hydroxy-2-methyl-2-(methylsulfonyl)-4-[4-(3-phenoxypropoxy)phenyl]butanamide] | ≥ 64 | 32 (≈ 75.9 µM) | 42.5 | ≧64 mg/L | 16 (≈ 38 µM) | – | – | – | – | – |
| CC(=O)c1ccc(-c2ccc(CCC(C)(C(=O)NO)S(C)(=O)=O)c(F)c2)nc1 (stereo not drawn) [Example 187] | – | – | – | 16 mg/L | – | 4 | ≧64 mg/L | 0.632 | 16 mg/L | – |
| CC(CCc1ccc(OCc2ccc(F)cc2C#N)cc1)(C(=O)NO)S(C)(=O)=O (stereo not drawn) [Example 284, 4-{4-[(2-cyano-4-fluorobenzyl)oxy]phenyl}-N-hydroxy-2-methyl-2-(methylsulfonyl)butanamide] | ≥ 64 | ≥ 64 | 5.36 | ≧64 mg/L | 32 (≈ 76.1 µM) | – | – | – | – | – |
| Cc1nncn1-c1ccc(OCCOc2ccc(CCC(C)(C(=O)NO)S(C)(=O)=O)cc2)cc1 (stereo not drawn) [Example 290, N-hydroxy-2-methyl-2-(methylsulfonyl)-4-(4-{2-[4-(3-methyl-4H-1,2,4-triazol-4-yl)phenoxy]ethoxy}phenyl)butanamide] | ≥ 64 | ≥ 64 | 3.56 | 32 mg/L | 8 (≈ 16.4 µM) | – | – | – | – | – |
| CC(CCc1ccc(-c2ccc3[nH]ccc3c2)cc1)(C(=O)NO)S(C)(=O)=O (stereo not drawn) [Example 57] | – | – | – | 8 mg/L | – | 0.5 | 8 mg/L | 0.295 | 0.5 mg/L | – |
| CSc1cccc(-c2ccc(CCC(C)(C(=O)NO)S(C)(=O)=O)cc2)c1 (stereo not drawn) [Example 56] | – | – | – | 4 mg/L | – | 2 | 8 mg/L | 0.417 | 2 mg/L | – |
| CC(CCc1ccc(-c2ccccc2F)cc1)(C(=O)NO)S(C)(=O)=O (stereo not drawn) [Example 50] | – | – | – | 8 mg/L | – | 0.5 | 16 mg/L | 0.731 | 2 mg/L | – |
| CC(=O)c1ccc(-c2ccc(CCC(C)(C(=O)NO)S(C)(=O)=O)cn2)cc1 (stereo not drawn) [Example 133] | – | – | – | ≧64 mg/L | – | 16 | ≧64 mg/L | 0.985 | 16 mg/L | – |
| C[C@@](CCc1ccc(-c2ccc(C(=O)N3CCC[C@@H]3CO)cc2)cc1)(C(=O)NO)S(C)(=O)=O [Example 216] | – | – | – | ≧64 mg/L | – | – | – | 4.02 | – | PA-7 MIC [1, 13]: 32 mg/L; AB-3167 MIC [2, 14]: ≧64 mg/L; EC-1 MIC ([5]; Escherichia coli EC-1): 32 mg/L |
| Cc1oc(-c2cccc(F)c2)nc1COc1ccc(CCC(C)(C(=O)NO)S(C)(=O)=O)cc1 (stereo not drawn) [Example 302, 4-(4-{[2-(3-fluorophenyl)-5-methyl-1,3-oxazol-4-yl]methoxy}phenyl)-N-hydroxy-2-methyl-2-(methylsulfonyl)butanamide] | ≥ 64 | ≥ 64 | 12.5 | ≧64 mg/L | 16 (≈ 33.6 µM) | – | – | – | – | – |
| C[C@@](CCc1ccc(-c2ccc3c(c2)C(=O)NC3)cc1)(C(=O)NO)S(C)(=O)=O [Example 208] | – | – | – | 16 mg/L | – | – | – | 0.374 | – | PA-7 MIC [1, 13]: 2 mg/L; AB-3167 MIC [2, 14]: ≧64 mg/L; EC-1 MIC ([5]; Escherichia coli EC-1): 4 mg/L |
